Reference: patent US20250236642A1, “PHARMACEUTICAL COMPOSITION FOR TREATMENT OR PREVENTION OF ADULT T-CELL LEUKEMIA” (NEC Corporation, priority 2022, published 2025)
Read-outs that look alike come from different tables or passages of the source. No end group written: not given here.

Key:
HLA-A*02:01 molecule = target: T1, HLA-A*02:01 molecule (Homo sapiens, UniProt P04439, D140Y/D185E/D98H/E176V/E277Q/G131W/G231S/I119V/I121R/I166T/I218V/L300P/L318F/N151K/N90K/P208A/P217A/Q86G/Q94H/R138H/R169H/T345S); assay: Binding of peptide to HLA-A*02:01 molecule using cell line T2
T1 construct: using a cell line T2 (purchased from ATCC) expressing an HLA-A*02:01 molecule; host or cells: T2 cell line
Experimental: Measurement of binding ability of a peptide to an HLA-A*02:01 molecule, which is a product of an HLA-A*02:01 gene, was performed using a cell line T2 (purchased from ATCC) expressing an HLA-A*02:01 molecule.
T2 cells and purified β2m were added to a serial dilution series of a peptide whose binding ability was to be measured, and then the mixture was incubated at 37° C. for four hours. HLA-A*02:01 molecules whose expression level increased in a peptide concentration-dependent manner by this time point were stained using an association-type specific fluorescently labeled monoclonal antibody BB7.2.
Thereafter, the amount of fluorescence per cell was measured with a flow cytometer, and a dissociation constant Kd value was calculated by the method disclosed in the article (Udaka et al., Immunogenetics, 51, 816-828, 2000) by the present inventor.

HLA-A*24:02 molecule = HLA-A*24:02 molecule (Homo sapiens, UniProt P04439, D101N/D140Y/D185E/E176V/E190D/F33S/G103R/G107R/I119L/I121M/I306V/K335N/L105A/L180Q/L300P/N151K/N90K/Q86E/Q94H/R106L/R138H/R89G/T104I/T345S/V100E/W191G/Y123F); assay: Binding of peptide to HLA-A*24:02 molecule using C1R-A24 cells
Experimental: Measurement of binding ability of a peptide to an HLA-A*24:02 molecule, which is a product of an HLA-A*24:02 gene, was performed using C1R-A24 cells expressing an HLA-A*24:02 molecule (Cells created by Professor Masafumi Takiguchi, Kumamoto University, was provided by Assistant Professor Masaki Yasukawa, Ehime University, with permission).
First, the C1R-A24 cells were exposed to acidic conditions at pH 3.3 for 30 seconds to dissociate and remove an endogenous peptide originally binding to an HLA-A*24:02 molecule and light chain β2m commonly associated with an HLA class I molecule. After neutralization, purified β2m was added to the C1R-A24 cells, and the mixture was added to a peptide dilution series and incubated on ice for four hours.
Thereafter, the number of MHC-peps for each C1R-A24 cell (proportional to a fluorescence intensity of the fluorescent antibody) was quantitatively measured using a fluorescence cell analyzer FACScan (Becton-Dickinson).

HLA-A*02:06 molecule = target: T2, HLA-A*02:06 molecule (Homo sapiens, UniProt P04439, D140Y/D185E/D98H/E176V/E277Q/F33Y/G131W/G231S/I119V/I121R/I166T/I218V/L300P/L318F/N151K/N90K/P208A/P217A/Q86G/Q94H/R138H/R169H/T345S); assay: Binding of peptide to HLA-A*02:06 molecule using RA2.6 cells
T2 construct: expressed in transfected cells; host or cells: RA2.6 cells (mouse TAP-deficient RMAS with HLA-A*02:06 cDNA)
Experimental: Measurement of binding ability of a peptide to an HLA-A*02:06 molecule, which is a product of an HLA-A*02:06 gene, was performed using RA2.6 cells (a cell line newly created at Kochi University) obtained by introducing cDNA of the HLA-A*02:06 gene into RMAS, which is a mouse transporter associated with antigen processing (TAP)-deficient cell line.
A fluorescently labeled monoclonal antibody BB7.2 that specifically recognizes a peptide binding type HLA-A*02:06 molecule was added thereto, and the mixture was incubated on ice for 20 minutes to stain the cells.

[1] = Table 2, dissociation constant Kd value (−log Kd value), >−3.0 = no significant binding ability, read-out: Measured value of allele A*02:01 (converted)
[2] = Table 2, dissociation constant Kd value (−log Kd value), >−3.0 = no significant binding ability, read-out: Measured value of allele A*24:02 (converted)
[3] = Table 2, dissociation constant Kd value (−log Kd value), >−3.0 = no significant binding ability, read-out: Measured value of allele A*02:06 (converted)
[4] = Measured value of allele A*24:02, Table 2, dissociation constant Kd value (−log Kd value), >−3.0 = no significant binding ability
[5] = Table 4, Kd value (−log Kd value), smaller than −3 = binding property, read-out: Measured value of allele A*24:02 (converted)

Sequence	Kd (HLA-A*02:01 molecule; [1])	Kd (HLA-A*24:02 molecule; [2])	Kd (HLA-A*02:06 molecule; [3])	Kd (HLA-A*02:01 molecule)	Kd (HLA-A*24:02 molecule; [4])	Kd (HLA-A*02:06 molecule)	Measured value of allele A*02:06 (HLA-A*02:06 molecule; Table 2, dissociation constant Kd value (−log Kd value), >−3.0 = no significant binding ability)	Kd (HLA-A*24:02 molecule; [5])	Measured value of allele A*02:06 (HLA-A*02:06 molecule; Table 4, Kd value (−log Kd value), smaller than −3 = binding property)
ALAPPTAQL [compound 6]	0.265 µM	4.69 µM	0.392 µM	–	–	–	–	–	–
ALLAPAVLL [compound 7]	0.216 µM	1.09 µM	1.43 µM	–	–	–	–	–	–
ALPAPHLTL [compound 18]	–	–	–	1.02 µM	0.185 µM	3.03 µM	–	–	–
ALPKIRARV [compound 12]	2.19 µM	0.66 µM	16.6 µM	–	–	–	–	–	–
ALQFLIPRL [compound 22]	–	–	–	1.26 µM	10.9 µM	1.45 µM	–	–	–
ALQPPCPNL [compound 31]	–	–	–	7.44 µM	4.94 µM	23.1 µM	–	–	–
ALRPAPALL [compound 26]	0.774 µM	0.397 µM	> 427 µM	–	–	–	>−3.37	–	–
AQAPPTAQL [compound 5]	–	–	–	0.961 µM	1.77 µM	1.42 µM	–	–	–
AQISAYRTC [compound 50]	> 1000 µM	> 1000 µM	82.1 µM	–	–	–	–	> 1000 µM	–
ARHSTIPLV [compound 77]	> 1000 µM	> 1000 µM	> 1000 µM	–	–	–	–	> 1000 µM	–
ATAPPTAQL [compound 25]	10.1 µM	29.2 µM	0.684 µM	–	–	–	–	–	–
ATGDCSSFI [compound 59]	83.1 µM	> 1000 µM	> 1000 µM	–	–	–	–	> 1000 µM	>−3
AYRTCWIFS [compound 49]	> 1000 µM	3.82 µM	> 1000 µM	–	–	–	–	–	–
CDLSSFEFF [compound 58]	> 1000 µM	80.3 µM	> 1000 µM	–	–	–	–	–	–
CIDEHQWQL [compound 28]	14 µM	332 µM	5.62 µM	–	–	–	–	–	–
CLDEHQWQL [compound 9]	0.216 µM	1.36 µM	0.474 µM	–	–	–	–	–	–
CMIVHQGTI [compound 36]	> 1000 µM	2.91 µM	42.4 µM	–	–	–	–	–	–
CTDEHQWQL [compound 39]	9.07 µM	> 1000 µM	0.16 µM	–	–	–	–	> 1000 µM	–
EAIDGYITL [compound 47]	> 1000 µM	2.91 µM	18.9 µM	–	–	–	–	–	–
ETLQFIDSM [compound 53]	> 1000 µM	> 1000 µM	426 µM	–	–	–	–	> 1000 µM	–
FIDSDSSSW [compound 57]	> 1000 µM	19.9 µM	> 1000 µM	–	–	–	–	–	–

Sequence	Kd (HLA-A*02:01 molecule; [1])	Kd (HLA-A*24:02 molecule; [2])	Kd (HLA-A*02:06 molecule; [3])	Kd (HLA-A*02:01 molecule)	Kd (HLA-A*24:02 molecule; [4])	Kd (HLA-A*02:06 molecule)	Measured value of allele A*02:06 (HLA-A*02:06 molecule; Table 2, dissociation constant Kd value (−log Kd value), >−3.0 = no significant binding ability)	Kd (HLA-A*24:02 molecule; [5])	Measured value of allele A*02:06 (HLA-A*02:06 molecule; Table 4, Kd value (−log Kd value), smaller than −3 = binding property)
FSNDFGQSL [compound 35]	126 µM	> 1000 µM	19.3 µM	–	–	–	–	> 1000 µM	–
GILSDHQQS [compound 74]	> 1000 µM	> 1000 µM	> 1000 µM	–	–	–	–	> 1000 µM	–
GRVMQIDGV [compound 68]	> 1000 µM	23.4 µM	> 1000 µM	–	–	–	–	–	–
GSPDEFSND [compound 72]	> 1000 µM	> 1000 µM	> 1000 µM	–	–	–	–	> 1000 µM	–
GTHLDAGTV [compound 51]	> 1000 µM	> 1000 µM	218 µM	–	–	–	–	> 1000 µM	–
GYITCERPF [compound 65]	> 1000 µM	0.301 µM	> 1000 µM	–	–	–	–	–	–
GYITLGKPH [compound 80]	> 1000 µM	> 1000 µM	> 1000 µM	–	–	–	–	> 1000 µM	–
HMAKVIEFL [compound 38]	2.06 µM	0.923 µM	> 1000 µM	–	–	–	–	–	–
HMTSSERPF [compound 64]	> 1000 µM	68.4 µM	> 1000 µM	–	–	–	–	–	–
IALETPVWI [compound 20]	–	–	–	7.77 µM	3.29 µM	3.03 µM	–	–	–
IFADVSSST [compound 78]	> 1000 µM	> 1000 µM	> 1000 µM	–	–	–	–	> 1000 µM	–
ILSDHQQSQ [compound 70]	> 1000 µM	> 1000 µM	> 1000 µM	–	–	–	–	> 1000 µM	–
IQYSSFHNL [compound 21]	–	–	–	5.17 µM	0.294 µM	2.51 µM	–	–	–
ISAYRTCWI [compound 34]	> 1000 µM	10 µM	729 µM	–	–	–	–	–	–
KFLEAFHEV [compound 8]	1.17 µM	0.133 µM	1.56 µM	–	–	–	–	–	–
LAEEHGATL [compound 61]	> 1000 µM	> 1000 µM	32 µM	–	–	–	–	> 1000 µM	–
LAITRKSFI [compound 46]	> 1000 µM	7.61 µM	911 µM	–	–	–	–	–	–
LHEEHGATL [compound 79]	> 1000 µM	> 1000 µM	> 1000 µM	–	–	–	–	> 1000 µM	–
LHITRKSFI [compound 63]	> 1000 µM	17.5 µM	> 1000 µM	–	–	–	–	–	–
LIEEHGATL [compound 40]	31.9 µM	> 1000 µM	15.3 µM	–	–	–	–	> 1000 µM	–
LIITRKSFI [compound 29]	78.1 µM	2.5 µM	230 µM	–	–	–	–	–	–

Sequence	Kd (HLA-A*02:01 molecule; [1])	Kd (HLA-A*24:02 molecule; [2])	Kd (HLA-A*02:06 molecule; [3])	Kd (HLA-A*02:01 molecule)	Kd (HLA-A*24:02 molecule; [4])	Kd (HLA-A*02:06 molecule)	Measured value of allele A*02:06 (HLA-A*02:06 molecule; Table 2, dissociation constant Kd value (−log Kd value), >−3.0 = no significant binding ability)	Kd (HLA-A*24:02 molecule; [5])	Measured value of allele A*02:06 (HLA-A*02:06 molecule; Table 4, Kd value (−log Kd value), smaller than −3 = binding property)
LLITRKSFI [compound 16]	7.39 µM	0.23 µM	23.7 µM	–	–	–	–	–	–
LLLFSAAAL [compound 1]	0.881 µM	11.1 µM	10.9 µM	–	–	–	–	–	–
LLNPNRQTI [compound 23]	5.74 µM	0.602 µM	296 µM	–	–	–	–	–	–
LMEEHGATL [compound 13]	12.1 µM	5.98 µM	2.1 µM	–	–	–	–	–	–
LMITRKSFI [compound 17]	6.26 µM	0.972 µM	29.3 µM	–	–	–	–	–	–
LPFSPSQFL [compound 60]	> 1000 µM	448 µM	> 1000 µM	–	–	–	–	–	–
LPPARHSTI [compound 76]	> 1000 µM	> 1000 µM	> 1000 µM	–	–	–	–	> 1000 µM	–
LTEEHGATL [compound 42]	82.1 µM	> 1000 µM	11.9 µM	–	–	–	–	> 1000 µM	–
LTITRKSFI [compound 45]	> 1000 µM	15 µM	162 µM	–	–	–	–	–	–
LVEEHGATL [compound 43]	66.1 µM	> 1000 µM	13.7 µM	–	–	–	–	> 1000 µM	–
LVITRKSFI [compound 30]	97.6 µM	3.47 µM	243 µM	–	–	–	–	–	–
MLPQTPSHL [compound 24]	2.64 µM	0.0716 µM	109 µM	–	–	–	–	–	–
SLLITRKSF [compound 62]	> 1000 µM	1.44 µM	> 1000 µM	–	–	–	–	–	–
SLPFSPSQF [compound 56]	> 1000 µM	0.1 µM	> 1000 µM	–	–	–	–	–	–
SLPNEKQTS [compound 69]	> 1000 µM	> 1000 µM	> 1000 µM	–	–	–	–	> 1000 µM	–
SLVLTWAAL [compound 14]	2.36 µM	4.89 µM	0.572 µM	–	–	–	–	–	–
SPDEFSNDF [compound 73]	> 1000 µM	> 1000 µM	> 1000 µM	–	–	–	–	> 1000 µM	–
SSFEFFEEA [compound 37]	0.32 µM	> 1000 µM	0.0377 µM	–	–	–	–	> 1000 µM	–
SSLDPPKVL [compound 55]	> 1000 µM	4.47 µM	> 1000 µM	–	–	–	–	–	–
